Source: PubChem BioAssay (NCI)
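Values below derive from 48-hour exposures of cells grown in 96-well plates, with endpoints linearly interpolated between the two concentrations bracketing the appropriate inhibition level. Abbreviation: GI50, concentration required for 50% inhibition of growth. TGI: concentration producing complete growth inhibition.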

Columns and labels:
Test in all cases: DTP human tumour cell line panel, 48 h
KM20L2 colon = tested on: KM20L2 colon
HOP-18 NSCLC = tested on: HOP-18 NSCLC
DMS 114 small cell lung = tested on: DMS 114 small cell lung
DMS 273 small cell lung = tested on: DMS 273 small cell lung

Work on `CCCCc1ccc(-n2c3nc(=O)n(C)c(=O)c-3nc3ccccc32)cc1` yielded a TGI (KM20L2 colon) of 14.4 µM, a TGI (HOP-18 NSCLC) of 22.7 µM and a TGI (DMS 114 small cell lung) of 18.5 µM. For the same compound, the TGI (DMS 273 small cell lung) was 26.4 µM.

Compound `CN(C)CC/C(=N\Nc1ccccc1)c1ccccc1` has a TGI (HOP-18 NSCLC) of over 100 µM and a TGI (DMS 114 small cell lung) of over 100 µM.

Work on `CCOC(=O)C1=C(Nc2ccc(Cl)cc2Cl)OC/C1=N\NS(=O)(=O)c1ccc(C)cc1` yielded a TGI (KM20L2 colon) of over 100 µM, a TGI (HOP-18 NSCLC) of over 100 µM and a TGI (DMS 114 small cell lung) of over 100 µM. It also gave a TGI (DMS 273 small cell lung) of over 100 µM.

For `O=C1c2ccccc2C2(O)NC(=S)N(c3ccccc3)C12O` (centres undefined), the TGI (KM20L2 colon) was over 100 µM, the TGI (HOP-18 NSCLC) was over 100 µM and the TGI (DMS 114 small cell lung) was over 100 µM.

Work on `NC1CCCCC1N.O=S(=O)([O-])CCCN1CCOCC1.O=S(=O)([O-])CCCN1CCOCC1.[Pt+4]` yielded a GI50 (KM20L2 colon) of 5.48 µM, a TGI (KM20L2 colon) of over 100 µM and a GI50 (HOP-18 NSCLC) of 16 µM. For the same compound, the TGI (HOP-18 NSCLC) was over 89.2 µM, the GI50 (DMS 273 small cell lung) was 4.87 µM and the TGI (DMS 273 small cell lung) was over 100 µM.

Work on `COc1ccc(C(=O)OC2C=COC(C)C2OC(=O)c2ccc(OC)cc2)cc1` (centres undefined) yielded a TGI (KM20L2 colon) of over 77.1 µM, a TGI (HOP-18 NSCLC) of over 61.1 µM and a TGI (DMS 114 small cell lung) of 37.1 µM. For the same compound, the TGI (DMS 273 small cell lung) was 73.6 µM.

With `Nc1nc(=S)[nH]c(C(=O)Nc2ccc(Cl)c(Cl)c2)c1-c1ccc(Cl)cc1` the TGI (KM20L2 colon) was over 100 µM, the TGI (HOP-18 NSCLC) was over 100 µM and the TGI (DMS 114 small cell lung) was over 100 µM.

`COc1ccc2cc3[n+](cc2c1OC)CCc1cc(O)c(O)cc1-3` showed a TGI (KM20L2 colon) of over 100 µM, a TGI (DMS 114 small cell lung) of over 100 µM and a TGI (DMS 273 small cell lung) of over 100 µM.

For `C1CCN(C2OC3C(COC3N3CCCCC3)OC2OC2CCO[C@@H]2N2CCCCC2)CC1` (some centres undefined), the TGI (KM20L2 colon) was over 100 µM, the TGI (DMS 114 small cell lung) was 54.7 µM and the TGI (DMS 273 small cell lung) was over 100 µM.

For `O=c1[nH]c2c3ccccc3ccc2c2cc3c(cc12)OCO3`, the TGI (KM20L2 colon) was over 100 µM, the TGI (HOP-18 NSCLC) was over 100 µM and the TGI (DMS 273 small cell lung) was over 100 µM.

Work on `O=C(O)CC12C3C4C5C3C1C5C42` (centres undefined) yielded a TGI (KM20L2 colon) of over 100 µM, a TGI (DMS 114 small cell lung) of over 100 µM and a TGI (DMS 273 small cell lung) of over 100 µM.

Compound `CCn1c(O)c(C=N)c(=O)n(CC)c1=O` has a TGI (KM20L2 colon) of over 100 µM, a TGI (HOP-18 NSCLC) of over 100 µM and a TGI (DMS 114 small cell lung) of over 100 µM. It also gave a TGI (DMS 273 small cell lung) of over 100 µM.

In the case of `COC1OC(C)C(O)CC1OS(=O)(=O)c1ccc(C)cc1` (centres undefined), the TGI (KM20L2 colon) is reported as over 100 µM, the TGI (HOP-18 NSCLC) is reported as over 100 µM and the TGI (DMS 114 small cell lung) is reported as over 100 µM. It also gave a TGI (DMS 273 small cell lung) of over 100 µM.

In the case of `C[C@]12CC[C@H](OCCC#N)CC1=CC[C@@H]1C2CC[C@]2(C)/C(=N/OCCC#N)CCC12` (some centres undefined), the TGI (KM20L2 colon) is reported as over 100 µM, the TGI (HOP-18 NSCLC) is reported as over 100 µM and the TGI (DMS 114 small cell lung) is reported as over 100 µM. For the same compound, the TGI (DMS 273 small cell lung) was over 100 µM.

Compound `Cc1nc2cc(N)c(F)cc2[nH]1` has a TGI (DMS 114 small cell lung) of over 100 µM and a TGI (DMS 273 small cell lung) of over 100 µM.

`O=c1ccnc2c1ccc1[nH]cccc12` was tested, and the TGI (KM20L2 colon) was over 100 µM, the TGI (HOP-18 NSCLC) was over 100 µM and the TGI (DMS 114 small cell lung) was over 100 µM. It also gave a TGI (DMS 273 small cell lung) of over 100 µM.

`NC(=S)N/N=C(\C(=O)Nc1cccc([N+](=O)[O-])c1)c1nc2ccc([N+](=O)[O-])cc2[nH]c1=O` gave a TGI (KM20L2 colon) of over 100 µM, a TGI (HOP-18 NSCLC) of over 100 µM and a TGI (DMS 114 small cell lung) of over 100 µM. It also gave a TGI (DMS 273 small cell lung) of over 100 µM.

With `Cc1cccc(C)c1NC(=O)CCc1nnc2s/c(=C\c3ccc(Cl)cc3)c(=O)n12` the TGI (KM20L2 colon) was over 100 µM, the TGI (HOP-18 NSCLC) was over 100 µM and the TGI (DMS 114 small cell lung) was over 100 µM. For the same compound, the TGI (DMS 273 small cell lung) was over 100 µM.
